Drawing on patent US11524010B2, “Substituted quinazoline sulfonamides as thioredoxin interacting protein (TXNIP) inhibitors” (SOUTHERN RESEARCH INSTITUTE, priority 2017, dated 2022), this text covers inhibition and CC50 for 23 compounds.

Data set [1] deals with TXNIP. Put plainly: Inhibition of glucose-induced endogenous TXNIP expression in INS-1 cells (qRT-PCR). Type of data set: cell-based, Rat. The settings on record: Rattus norvegicus, INS1, 24 h, 25 mM glucose; for inhibition at 1.5 µM: 1.5 μM compound; for inhibition at 12.5 µM: 12.5 μM compound. On the procedure: The Rat INS-1 cell line was obtained from UAB and maintained in RPMI-1640 (Invitrogen #11875) supplemented with 10% fetal bovine serum (FBS), 100 U/ml penicillin and […] streptomycin, 10 mM HEPES, 1 mM Sodium Pyruvate, 50 μM 2-Mercaptoethanol, and 11.1 mM Glucose in a humidified incubator with a 5% C02 atmosphere at 37° C. 4×10^4 cells per well were seeded to 96-well plate and incubated at 37° C. overnight. A subset of the cells were then cultured in medium with 5 mM Glucose for 24 hrs and then treated in medium with 25 mM glucose with or without compounds to be tested for another 24 hrs.
For the primary high throughput screening (HTS) assay, stably transfected, monoclonal INS-1 cells were split using Trypsin (2 ml per T75 flask) and seeded at a density of 10^4/well in a 384-well plate and incubated overnight at low, 5 mM glucose. The next day, the medium was changed to high glucose (25 mM) or high glucose plus the small molecules to be tested and luciferase assays were performed 24 h later. […] For secondary screens, total RNA was extracted from 96-well cultured cells using RNeasy 96 kit (Qiagen #74181) following the manufacturer's protocol using spin technology. Then a one-step qRT-PCR amplification was performed using QuantiFast SYBR Green RT-PCR kit (Qiagen #204154) and was carried out in a 10 μl reaction which consisted of 2 μl RNA, 0.5 μM each of primers (Rat TXNIP 5′ primer: […] (SEQ ID NO:1) and Rat TXNIP 3′ primer: […] (SEQ ID NO:2); Or Rat 18S rRNA 5′ primer: […] (SEQ ID NO:3) and Rat 18S rRNA 3′ primer: […]) (SEQ ID NO:4), 5 μl 2×SYBR Green Master Mix, 0.1 μl 10× QuantiFast RT Mix. The SYBR Green assay was performed using a LightCycler 480 II (Roche Applied Science) with an initial incubation at 50° C. for 10 min for RT followed by denaturation at 95° C. for 5 min. Forty cycles of amplification were performed using a thermal cycling profile of 95° C. for 10s, 60° C. for 30 s. Subsequently, a melting curve was recorded by holding at 95° C. for 60 s, cooling to 60° C. for 60 s, and then heating at 0.11° C./s up to 95° C. The data was collected and analyzed using the LightCycler 480 Software Release 1.5.0 SP3. The relative amount of TXNIP mRNA was normalized to 18 s rRNA level as a housekeeping gene, and the data was analyzed according to the 2^−ΔΔCT method (1). The transformed data was expressed as % inhibition and compound IC50 calculated by a 4-parameter logistic fit of the data using GraphPad Prism 7.
In general terms: In qPCR the cycle at which signal appears reflects the starting amount.

Data set [2] can be described thus: INS-1 cell viability (Cell Titer-Glo, ATP). Type of data set: cell-based, Rat. The following applies: rat, INS-1 cells, 72 hrs treatment. The procedure:
INS-1 cell viability was determined based on quantification of ATP using Cell Titer-Glo Luminescent Cell Viability Assay kit (Promega #G7572), which indicates the presence of metabolically active cells. Briefly, INS-1 cells were seeded into 96-well plates at a cell density of 4.5×10^4 and 3.5×10^4 cells per well and incubated overnight at 37° C. with 5% CO2. On the following day, cells were treated with compounds for 24 hrs and 72 hrs respectively. Cell Titer-Glo reagent was added to the cells and Luminescence was acquired on Synergy 4 Reader ([…]).
(In general: In ATP-based viability assays light output follows the ATP content of the culture.)

Usually inhibition stands for the share of the control response that was lost under treatment. Lower therefore signals a weak effect. Broadly, the CC50 is the concentration at which the toxic effect on the cells reaches its halfway point. In data set [1], `CS(=O)(=O)NCC1CCCN(c2ncnc3cc(C(=O)O)ccc23)C1` (stereo not drawn) [Compound 18, 4-(3-(methylsulfonamidomethyl)piperidin-1-yl)quinazoline-7-carboxylic acid] yielded an inhibition at 1.5 µM of 10% and an inhibition at 12.5 µM of 10%. The CC50 at 72 h in data set [2] is > 100 µM.

In data set [1], `CS(=O)(=O)NCC1CCCN(c2ncnc3cc(F)ccc23)C1` (stereo not drawn) [Compound 4, N-((1-(7-fluoroquinazolin-4-yl)piperidin-3-yl)methyl)methanesulfonamide] returned an inhibition at 1.5 µM of 24% and an inhibition at 12.5 µM of 16%. The half-maximal cytotoxic concentration (CC50) at 72 h in data set [2] is > 100 µM.

Regarding `O=S(=O)(NCC1CCCN(c2ncnc3ccc(C(F)(F)F)cc23)C1)c1ccccc1` (stereo not drawn) [Compound 54, N-((1-(6-(trifluoromethyl)quinazolin-4-yl)piperidin-3-yl)methyl)benzenesulfonamide], in data set [1], 1.5 µM produced 19% inhibition and the inhibition at 12.5 µM was 53%. Further, the CC50 at 72 h in data set [2] came to 17 µM.

Take `CC(C)(C)C(=O)Nc1ccc2ncnc(N3CCCC(CNS(C)(=O)=O)C3)c2c1` (stereo not drawn) [Compound 25, N-(4-(3-(methylsulfonamidomethyl)piperidin-1-yl)quinazolin-6-yl)pivalamide]: in data set [1], the inhibition at 1.5 µM was determined as 28% and the inhibition at 12.5 µM worked out at 51%. In addition, the half-maximal cytotoxic concentration (CC50) at 72 h in data set [2] is > 100 µM.

In data set [1], `CS(=O)(=O)NCC1CCCN(c2ncnc3c(F)cccc23)C1` (stereo not drawn) [Compound 3, N-((1-(8-fluoroquinazolin-4-yl)piperidin-3-yl)methyl)methanesulfonamide] had an inhibition at 1.5 µM of 4% and an inhibition at 12.5 µM of 59%. In data set [2], the half-maximal cytotoxic concentration (CC50) at 72 h is > 100 µM.

In data set [1], `CS(=O)(=O)NCC1CCCN(c2ncnc3cc(C(F)(F)F)ccc23)C1` (stereo not drawn) [Compound 12, N-((1-(7-(trifluoromethyl)quinazolin-4-yl)piperidin-3-yl)methyl)methanesulfonamide] had an inhibition at 1.5 µM of 0% and an inhibition at 12.5 µM of 13%. Further, the CC50 at 72 h in data set [2] was > 100 µM.

In data set [1], `CC(C)Nc1nc(N2CCCC(CNS(C)(=O)=O)C2)c2ccccc2n1` (stereo not drawn) [Compound 16, N-((1-(2-(isopropylamino)quinazolin-4-yl)piperidin-3-yl)methyl)methanesulfonamide] yielded an inhibition at 1.5 µM of 0% and an inhibition at 12.5 µM of 33%. Further, the half-maximal cytotoxic concentration (CC50) at 72 h in data set [2] is > 100 µM.

On to `CS(=O)(=O)NC1CCCN(c2ncnc3cc(C#N)c(F)cc23)C1` (stereo not drawn) [Compound 36, N-(1-(7-cyano-6-fluoroquinazolin-4-yl)piperidin-3-yl)methanesulfonamide], for which, in data set [1], 1.5 µM produced 0% inhibition and the inhibition at 12.5 µM is 34%. In addition, in data set [2], the half-maximal cytotoxic concentration (CC50) at 72 h came to 35 µM.

In data set [1], `CS(=O)(=O)NCC1CCCN(c2ncnc3c(Cl)cc(F)cc23)C1` (stereo not drawn) [Compound 10, N-((1-(8-chloro-6-fluoroquinazolin-4-yl)piperidin-3-yl)methyl)methanesulfonamide] came in with an inhibition at 1.5 µM of 23% and an inhibition at 12.5 µM of 51%. Also, in data set [2], the half-maximal cytotoxic concentration (CC50) at 72 h is > 100 µM.

For the compound `O=S(=O)(NCC1CCCN(c2ncnc3ccc(C(F)(F)F)cc23)C1)C1CCCCC1` (stereo not drawn) [Compound 55, N-((1-(6-(trifluoromethyl)quinazolin-4-yl)piperidin-3-yl)methyl)cyclohexanesulfonamide], in data set [1], the inhibition at 1.5 µM is 29% and the inhibition at 12.5 µM came out at 41%. In addition, the CC50 at 72 h in data set [2] amounted to 7 µM.

Take `CS(=O)(=O)NCC1CCCN(c2ncnc3cccc(F)c23)C1` (stereo not drawn) [Compound 2, N-((1-(5-fluoroquinazolin-4-yl)piperidin-3-yl)methyl)methanesulfonamide]: in data set [1], 1.5 µM produced 13% inhibition and the inhibition at 12.5 µM is 61%. The cytotoxic concentration (CC50) at 72 h in data set [2] was > 100 µM.

In data set [1], `CS(=O)(=O)NCC1CCCN(c2ncnc3cc(F)c(F)cc23)C1` (stereo not drawn) [Compound 7, N-((1-(6,7-difluoroquinazolin-4-yl)piperidin-3-l)methyl)methanesulfonamide] registered an inhibition at 1.5 µM of 40% and an inhibition at 12.5 µM of 54%. Moreover, the cytotoxic concentration (CC50) at 72 h in data set [2] is > 100 µM.

In data set [1], `CS(=O)(=O)NCC1CCCN(c2nc[n+]([O-])c3ccc(C(F)(F)F)cc23)C1` (stereo not drawn) [Compound 61, 4-(3-(methylsulfonamidomethyl)piperidin-1-yl)-6-(trifluoromethyl)quinazoline 1-oxide] yielded an inhibition at 1.5 µM of 2% and an inhibition at 12.5 µM of 25%. Further, the half-maximal cytotoxic concentration (CC50) at 72 h in data set [2] was > 100 µM.

In the case of `CS(=O)(=O)NCC1CCCN(c2ncnc3cc(C(N)=O)c(F)cc23)C1` (stereo not drawn) [Compound 21, 6-fluoro-4-(3-(methylsulfonamidomethyl)piperidin-1-yl)quinazoline-7-carboxamide], in data set [1], the inhibition at 1.5 µM is 0% and the inhibition at 12.5 µM stood at 12%. In addition, the CC50 at 72 h in data set [2] is > 100 µM.

In the case of `COc1ccc2ncnc(N3CCCC(CN(C(C)C)S(=O)(=O)c4ccccc4)C3)c2c1` (stereo not drawn) [Compound 41, N-isopropyl-N-((1-(6-methoxyquinazolin-4-yl)piperidin-3-yl)methyl)benzene-sulfonamide], in data set [1], the inhibition at 1.5 µM was 36% and the inhibition at 12.5 µM came out at 65%. Also, the 50% cytotoxic concentration (CC50) at 72 h in data set [2] came out at 7 µM.

In data set [1], `CS(=O)(=O)NC1CCCN(c2ncnc3ccccc23)C1` (stereo not drawn) [Compound 31, N-(1-(quinazolin-4-yl)piperidin-3-yl)methanesulfonamide] registered an inhibition at 1.5 µM of 17% and an inhibition at 12.5 µM of 82%. In addition, the half-maximal cytotoxic concentration (CC50) at 72 h in data set [2] amounted to 67 µM.

Consider `O=S(=O)(NCC1CCCN(c2ncnc3ccc(C(F)(F)F)cc23)C1)c1ccc(Cl)cc1` (stereo not drawn) [Compound 56, 4-chloro-N-((1-(6-(trifluoromethyl)quinazolin-4-yl)piperidin-3-yl)methyl)benzenesulfonamide], for which, in data set [1], at 1.5 µM the inhibition was 19% and at 12.5 µM the inhibition was 30%. For the same compound, in data set [2], the CC50 at 72 h was found to be 17 µM.

In data set [1], `CS(=O)(=O)NCC1CN(c2ncnc3ccc(F)cc23)CCO1` (stereo not drawn) [Compound 46, N-((4-(6-fluoroquinazolin-4-yl)morpholin-2-yl)methyl)methanesulfonamide] came in with an inhibition at 1.5 µM of 0% and an inhibition at 12.5 µM of 55%. In addition, the 50% cytotoxic concentration (CC50) at 72 h in data set [2] is > 100 µM.

For `CS(=O)(=O)NCC1CCN(c2ncnc3ccc(F)cc23)CC1` [Compound 44, N-((1-(6-fluoroquinazolin-4-yl)piperidin-4-yl)methyl)methanesulfonamide], in data set [1], the inhibition at 1.5 µM amounted to 4% and the inhibition at 12.5 µM was determined as 22%. The 50% cytotoxic concentration (CC50) at 72 h in data set [2] is > 100 µM.

On to `CS(=O)(=O)NC1CCCN(c2ncnc3ccc(Cl)cc23)C1` (stereo not drawn) [Compound 35, N-(1-(6-chloroquinazolin-4-yl)piperidin-3-yl)methanesulfonamide], for which, in data set [1], the inhibition at 1.5 µM is 38% and the inhibition at 12.5 µM is 64%. Moreover, the cytotoxic concentration (CC50) at 72 h in data set [2] was found to be 41 µM.

In the case of `CS(=O)(=O)NCC1CCCN(c2ncnc3ccc(S(C)(=O)=O)cc23)C1` (stereo not drawn) [Compound 14, N-((1-(6-(methylsulfonyl)quinazolin-4-yl)piperidin-3-yl)methyl)methanesulfonamide], in data set [1], at 1.5 µM the inhibition was 0% and at 12.5 µM the inhibition was 24%. Moreover, in data set [2], the 50% cytotoxic concentration (CC50) at 72 h is > 100 µM.

In data set [1], `NC(=O)c1cc2ncnc(N3CCCC(CNS(=O)(=O)C4CC4)C3)c2cc1F` (stereo not drawn) [Compound 59, 4-(3-(cyclopropanesulfonamidomethyl)piperidin-1-yl)-6-fluoroquinazoline-7-carboxamide] came in with an inhibition at 1.5 µM of 5% and an inhibition at 12.5 µM of 5%. In addition, the CC50 at 72 h in data set [2] was > 100 µM.

In data set [1], `COc1ccc2ncnc(N3CCCC(CNS(C)(=O)=O)C3)c2c1` (stereo not drawn) [Compound 5, N-((1-(6-methoxyquinazolin-4-yl)piperidin-3-yl)methyl)methanesulfonamide] came in with an inhibition at 1.5 µM of 30% and an inhibition at 12.5 µM of 58%. The 50% cytotoxic concentration (CC50) at 72 h in data set [2] was > 100 µM.
